# Measured values from patent US20230000774A1, “METHODS AND COMPOSITIONS PRODUCED THEREBY” (Albumedix Limited, priority 2019, published 2023).
# Where two headings read alike, the source gives them in different places.
# Key:
# [1] = Drug solubility testing of AP1903 in ethanol and methanol; format: physicochemical
# Experimental: Drug solubility testing was undertaken to ascertain the highest concentration of drug solution that could be used for the preparation of the feed solution. […] Both were tested and found to perform similarly, with ˜40 mg of AP1903 dissolving into 1 mLl of solvent.
# [2] = cited from earlier work; for Water Solubility: obtained from DrugBank, rimiducid value provided by Bellicum Pharmaceuticals (estimated); for Solubility in water (literature): unformulated API
# [3] = obtained from DrugBank; total charge at pH 7.4; cited from earlier work
# physchem = settings: organic solvent or mixture, thermodynamic from solid
# Experimental: The solubility of nine poorly soluble APIs in ethanol was investigated; Acyclovir, Aripiprazole, Bifonazole, Etravirine, Ezetimibe, Glibenclamide. […] For each API, approximately 20 mg was weighed into a scintillation vial. 3 mL of ethanol was added to each vial. Samples were vortexed until completely dissolved. If after 2 mins the sample was not dissolved, a further 3 mL of ethanol was added, and the sample was vortexed again. After another 2 mins, if the sample was still not dissolved, the API in question was classed as insoluble.
# To quickly assess the APIs applicability to this method, the solubility of each API in ethanol was tested.
# [4] = Solubility of APIs in ethanol water mixtures; format: physicochemical; settings: ethanolic solution added to 50:50 EtOH:H2O
# Experimental: APIs were dissolved in ethanol at the desired concentration (Tables 16 and 17). The required volume of this solution was added to a 50:50 solution of ethanol:HPLC grade water with stirring (Table 17).
# To prepare the spray drying feed solution the API should preferably be soluble in 40:60 (v/v) ethanol/water mixtures. Any API that precipitated on addition of the ethanolic solution (from the previous section) to a 50:50 solution of EtOH:H2O was eliminated from the study.
# [5] = Solubility of APIs in D5W solution; format: physicochemical; settings: saline or isotonic, thermodynamic from solid
# Experimental: The solution was sampled after centrifugation (13.5 k rpm for 5 minutes) and the solubility of the APIs was determined by HPLC analysis of the saturated solution.
# Analysis was performed on an Agilent 1200 series HPLC employing a Waters, Xbridge Peptide BEH C18 column (150×4.6 mm i.d., 3.5 μm). […] Bifonazole was analysed using a 1 mL/min flow rate of 65:35 HPLC methanol:ammonium acetate (5 g/L, pH 2) with UV detection at 252 nm.
# [6] = Dissolution of curcumin in water and after spray drying with rHA; format: physicochemical; settings: unformulated
# DMSO solubility testing = format: physicochemical
# Experimental: 1 mL of DMSO was added to a scintillation vial containing approximately 20 mg of Ezetimibe. The sample readily dissolved with gentle mixing.
# A solution preparation method that utilised an alternative solvent was investigated. The alternative solvent needed to be similar to ethanol in its ability to dissolve the APIs whilst being miscible with water. Dimethyl sulfoxide (DMSO) was chosen as a promising candidate. Ezetimibe was chosen as a suitable API owing to its favourable COSHH assessment combined with the knowledge of DMSO as a transport agent. The solubility of Ezetimibe in DSMO was assessed by dissolving approx. 20 mg of API in 1 mL of solvent. […] The next step was to assess the API solubility in a mixture of DMSO and water.
# [7] = D5W solution, unformulated API, saturated solution, read-out: Solubility in D5W solution
solubility (physchem; Soluble (>[…]) in EtOH?),Soluble in EtOH/H2O mixture [4],SMILES,Water Solubility [2],Physiological Charge [3],also measured
,,"CC[C@H](C(=O)N1CCCC[C@H]1C(=O)O[C@H](CCc1ccc(OC)c(OC)c1)c1cccc(OCC(=O)NCCNC(=O)COc2cccc([C@@H](CCc3ccc(OC)c(OC)c3)OC(=O)[C@@H]3CCCCN3C(=O)[C@@H](CC)c3cc(OC)c(OC)c(OC)c3)c2)c1)c1cc(OC)c(OC)c(OC)c1 [AP1903, 1,2-Ethanediylbis[imino(2-oxo-2,1-ethanediyl)oxy-3,1-phenylene(1R)-3-(3,4-dimethoxyphen-yl)-1,1-propanediyl] (2S,2'S)bis{1-[(2S)-2-(3,4,5-trimethoxyphenyl)butanoyl]-2-piperidine-carboxylate}]",approximately 0.000001 mg/mL,0,amount of AP1903 dissolving in ethanol ([1]; dissolving into 1 mL of ethanol): ~40 mg; amount of AP1903 dissolving in methanol ([1]; dissolving into 1 mL of methanol): ~40 mg; Water Solubility ([2]; listed as Rimiducid (AP1903)): 0.001 µg/mL; water solubility (estimated) ([2]; provided by Bellicum Pharmaceuticals): 0.7 nM
< 1200 µg/mL,,Nc1nc2c(ncn2COCCO)c(=O)[nH]1 [Acyclovir],,,
> 1200 µg/mL,No,O=C1CCc2ccc(OCCCCN3CCN(c4cccc(Cl)c4Cl)CC3)cc2N1 [Aripiprazole],,,solubility (physchem; approximate concentration in ethanol at which completely solubilised): ~2200 µg/mL
> 1200 µg/mL,Yes,c1ccc(-c2ccc(C(c3ccccc3)n3ccnc3)cc2)cc1 (stereo not drawn) [Bifonazole],2.45 µg/mL,0,solubility at 2 min [5]: 3.5 µg/mL; Solubility in water (literature) [2]: 2.5 µg/mL
,,COc1cc(/C=C/C(=O)CC(=O)/C=C/c2ccc(O)c(OC)c2)ccc1O [Curcumin],,,Water Solubility [6]: poorly water soluble
,,C#C[C@]1(O)CC[C@H]2[C@@H]3CCC4=Cc5oncc5C[C@]4(C)[C@H]3CC[C@@]21C [Danazol],,0,
< 1200 µg/mL,,Cc1cc(C#N)cc(C)c1Oc1nc(Nc2ccc(C#N)cc2)nc(N)c1Br [Etravirine],16.9 µg/mL,0,
> 1200 µg/mL,Yes,O=C1[C@H](CC[C@H](O)c2ccc(F)cc2)[C@@H](c2ccc(O)cc2)N1c1ccc(F)cc1 [Ezetimibe],8.46 µg/mL,0,"solubility in a mixture of DMSO and water (DMSO solubility testing; addition to a 50:50 DMSO:water mixture): remained in solution; solubility in DMSO (DMSO solubility testing; approx. 20 mg of API in 1 mL of DMSO): dissolved readily with gentle agitation; solubility at 2 min [5, 7]: 3.4 µg/mL; Solubility in water (literature) [2]: 8.5 µg/mL"
< 1200 µg/mL,,COc1ccc(Cl)cc1C(=O)NCCc1ccc(S(=O)(=O)NC(=O)NC2CCCCC2)cc1 [Glibenclamide],,,
> 1200 µg/mL,Yes,Cc1cccc(C)c1OCC(=O)N[C@@H](Cc1ccccc1)[C@@H](O)C[C@H](Cc1ccccc1)NC(=O)[C@H](C(C)C)N1CCCNC1=O [Lopinavir],1.92 µg/mL,,solubility at 2 min [5]: 14.9 µg/mL; Solubility in water (literature) [2]: 1.9 µg/mL
> 1200 µg/mL,Yes,O=C1NC(=O)C(c2ccccc2)(c2ccccc2)N1 [Phenytoin],71.1 µg/mL,0,"solubility at 2 min [5, 7]: 14.1 µg/mL; Solubility in water (literature) [2]: 71.1 µg/mL"
,,"CO[C@H]1C[C@@H]2CC[C@@H](C)[C@@](O)(O2)C(=O)C(=O)N2CCCC[C@H]2C(=O)O[C@H]([C@H](C)C[C@@H]2CC[C@@H](O)[C@H](OC)C2)CC(=O)[C@H](C)/C=C(\C)[C@@H](O)[C@@H](OC)C(=O)[C@H](C)C[C@H](C)/C=C/C=C/C=C/1C [Rapamycin (sirolimus), Rapamycin]",1.73 µg/mL,,
,,CC(C)c1nc(CN(C)C(=O)N[C@H](C(=O)N[C@@H](Cc2ccccc2)C[C@H](O)[C@H](Cc2ccccc2)NC(=O)OCc2cncs2)C(C)C)cs1 [Ritonavir],,0,
,,C=CC[C@@H]1/C=C(\C)C[C@H](C)C[C@H](OC)[C@H]2O[C@@](O)(C(=O)C(=O)N3CCCC[C@H]3C(=O)O[C@H](/C(C)=C/[C@@H]3CC[C@@H](O)[C@H](OC)C3)[C@H](C)[C@@H](O)CC1=O)[C@H](C)C[C@@H]2OC [Tacrolimus],4.02 µg/mL,0,
